In US20240197871A1, “COMBINATION OF A CAR T CELL THERAPY AND AN IMMUNOMODULATORY COMPOUND FOR TREATMENT OF LYMPHOMA” (Juno Therapeutics, Inc., priority 2021, published 2024):

Columns and labels:
[1] = tested on: anti-CD19 CAR T cells; experiment: Proliferation (cell doublings) of stimulated anti-CD19 CAR T cells, IncuCyte; format: cell-based, human
Method: Anti-CD19 CAR-expressing T cell compositions were generated from three different healthy donors as described in Example 1. Prior to use, cryopreserved CD4+ and CD8+ engineered cell compositions were thawed and combined at approximately a 1:1 CD4:CD8 ratio.
Following incubation, stimulated CAR T cells were harvested, washed twice in media, and assessed.
Proliferation of T cells during culture with the plate-bound anti-idiotypic antibody was monitored for seven days using an IncuCyte® Live Cell Analysis System (Essen BioScience Inc.), and the number of cell doublings of cells stimulated with 30 μg/mL of anti-idiotypic antibody is shown in FIG. 2B and FIG. 2C for the three donors (mean±SEM).

[2] = tested on: CAR-expressing CD8 T cells; experiment: T cell memory markers CD27/CCR7 after chronic stimulation (flow cytometry); format: cell-based, human
Method: Similar results are shown in FIG. 7B for a separate experiment in which CAR T cells were chronically stimulated for 7 days in the presence or absence of Compound C. In this experiment, Compound C was present at (i) 50 nM for one day and 1 nM for the remaining six days of stimulation, (ii) 25 nM for one day and 0.5 nM for the remaining six days of stimulation, (iii) 10 nM for all seven days of stimulation, or (iv) 1 nM for all seven days of stimulation. Stimulated CAR T cells were then re-challenged with Raji lymphoma tumor spheroids in the absence of Compound C, after which cytolytic activity was assessed over a four-day period. […] The CAR T cells stimulated for seven days in the presence or absence of Compound C were also analyzed for phenotypic T cell memory markers using flow cytometry following chronic stimulation. […] CD27/CCR7 expression, which is a marker for less differentiated, naïve-like T cells, was highest in CAR-expressing CD8 T cells stimulated in the presence of Compound C at 50 nM for one day and 1 nM for the remaining six days of stimulation (* P<0.05).

[3] = tested on: Granta-519 lymphoma tumor spheroids or A549 tumor spheroids; experiment: Chronic stimulation with rescue treatment during re-challenge with tumor spheroids; format: cell-based
Method: Anti-CD19 CAR-expressing T cells, produced as described in Example 1, were chronically stimulated as described in Example 3, but in the absence of Compound C during stimulation. Instead, chronically stimulated CAR T cells were treated with Compound C during re-challenge with Granta-519 lymphoma tumor spheroids or A549 tumor spheroids, after which cytolytic activity, cytokine production, and gene expression of the CAR T Cells was assessed.
FIGS. 4B and 4C show the volume of tumor spheroids co-cultured with anti-CD19 CAR T cells in the presence of Compound C.

[4] = target: T1, Ikaros (Homo sapiens, UniProt Q13422+Q96SW2); experiment: Ikaros expression in CAR T cells after six days of chronic stimulation (MFI); format: cell-based; details: higher concentrations (e.g., 0.01 μM and 0.1 μM); compared with Compound 2
T1 construct: analyzed by flow cytometry to assess intracellular levels of Ikaros and Aiolos in CAR+ T cells; endogenous in cells; host or cells: primary human CD4+ and CD8+ T cells from healthy donors, lentivirally transduced with an anti-CD19 CAR
T1 sequence (Q13422 whole entry): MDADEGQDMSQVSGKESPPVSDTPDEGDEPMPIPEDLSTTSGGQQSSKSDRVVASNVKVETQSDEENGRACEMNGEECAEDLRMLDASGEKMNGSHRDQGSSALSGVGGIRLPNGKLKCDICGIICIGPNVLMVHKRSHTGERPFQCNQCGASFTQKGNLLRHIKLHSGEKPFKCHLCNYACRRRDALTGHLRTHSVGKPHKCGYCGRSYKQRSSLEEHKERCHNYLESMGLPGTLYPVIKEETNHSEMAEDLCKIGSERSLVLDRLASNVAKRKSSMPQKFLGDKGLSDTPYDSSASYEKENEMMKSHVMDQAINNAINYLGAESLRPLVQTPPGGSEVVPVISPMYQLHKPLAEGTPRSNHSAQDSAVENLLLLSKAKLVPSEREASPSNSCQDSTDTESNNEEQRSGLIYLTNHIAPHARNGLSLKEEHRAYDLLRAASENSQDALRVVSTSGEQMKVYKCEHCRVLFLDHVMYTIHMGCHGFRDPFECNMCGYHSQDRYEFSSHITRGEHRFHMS
T1 sequence (Q96SW2 whole entry): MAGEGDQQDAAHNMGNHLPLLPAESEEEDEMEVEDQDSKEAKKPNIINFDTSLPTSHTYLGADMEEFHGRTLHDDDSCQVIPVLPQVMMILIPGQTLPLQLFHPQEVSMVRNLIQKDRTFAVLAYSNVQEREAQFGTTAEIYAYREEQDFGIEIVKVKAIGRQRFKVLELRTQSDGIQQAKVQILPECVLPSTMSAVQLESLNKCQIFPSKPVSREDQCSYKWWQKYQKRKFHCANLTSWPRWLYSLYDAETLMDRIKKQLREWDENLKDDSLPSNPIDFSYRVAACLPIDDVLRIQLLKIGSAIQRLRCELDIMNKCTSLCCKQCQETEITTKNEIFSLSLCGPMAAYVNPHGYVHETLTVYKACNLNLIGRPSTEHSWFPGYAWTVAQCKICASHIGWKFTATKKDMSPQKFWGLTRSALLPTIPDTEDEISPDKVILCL
T1 sequence (Q16531 whole entry partner): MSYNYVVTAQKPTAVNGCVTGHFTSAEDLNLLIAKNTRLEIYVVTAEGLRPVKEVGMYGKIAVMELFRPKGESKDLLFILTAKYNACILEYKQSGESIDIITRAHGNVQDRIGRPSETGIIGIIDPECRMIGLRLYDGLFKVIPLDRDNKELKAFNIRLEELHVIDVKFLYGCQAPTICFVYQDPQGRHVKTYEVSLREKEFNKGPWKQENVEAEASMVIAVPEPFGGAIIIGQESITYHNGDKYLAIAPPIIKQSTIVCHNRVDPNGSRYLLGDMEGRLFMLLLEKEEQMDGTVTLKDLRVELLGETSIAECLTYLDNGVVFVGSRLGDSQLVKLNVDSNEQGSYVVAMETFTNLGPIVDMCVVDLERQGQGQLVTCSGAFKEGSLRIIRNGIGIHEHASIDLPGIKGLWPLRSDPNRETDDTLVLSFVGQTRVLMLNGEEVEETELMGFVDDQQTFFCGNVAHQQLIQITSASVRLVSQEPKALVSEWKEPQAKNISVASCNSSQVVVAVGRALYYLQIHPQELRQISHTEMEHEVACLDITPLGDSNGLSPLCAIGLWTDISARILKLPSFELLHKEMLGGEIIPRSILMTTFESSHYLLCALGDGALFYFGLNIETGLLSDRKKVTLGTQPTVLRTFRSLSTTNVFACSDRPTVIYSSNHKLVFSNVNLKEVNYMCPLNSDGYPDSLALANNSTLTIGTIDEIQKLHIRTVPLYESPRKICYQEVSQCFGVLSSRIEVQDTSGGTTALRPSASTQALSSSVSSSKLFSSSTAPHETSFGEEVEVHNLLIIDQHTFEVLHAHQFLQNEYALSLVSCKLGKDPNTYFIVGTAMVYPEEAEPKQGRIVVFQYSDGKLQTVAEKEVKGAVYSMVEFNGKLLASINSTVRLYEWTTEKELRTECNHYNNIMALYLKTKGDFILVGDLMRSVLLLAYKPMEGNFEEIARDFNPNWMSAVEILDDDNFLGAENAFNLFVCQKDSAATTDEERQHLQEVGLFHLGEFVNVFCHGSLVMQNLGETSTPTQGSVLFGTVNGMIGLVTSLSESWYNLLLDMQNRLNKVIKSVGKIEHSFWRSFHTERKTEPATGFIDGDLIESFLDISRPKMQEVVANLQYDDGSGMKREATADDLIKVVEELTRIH
Method: To simulate conditions of chronic stimulation, anti-CD19 CAR-expressing T cells, produced as described in Example 1, were incubated with plate-bound CAR-specific anti-idiotypic antibody (see, e.g., WO2018/023100) and incubated at 37° C. for a period of six days. […] For instance, CAR T cells that were re-challenged with CD19+ tumor cells following the six-day stimulation had reduced IFNγ and IL-2 cytokine production (FIG. 3A) and reduced cytolytic function (FIG. 3B) compared to freshly thawed CAR T cells not subjected to the six-day stimulation.
The ability of Compound C to block or reduce this CAR T cell hypofunctionality following chronic stimulation was assessed. To do so, engineered CAR T cells were concurrently treated with Compound C, Compound 2, or a vehicle control during the six-day stimulation. Stimulated CAR T cells were then harvested, washed twice in media, and re-challenged with Granta-519 lymphoma tumor spheroids (that had been transduced with IncuCyte NucLight Red) in the absence of Compound C, after which cytolytic activity was assessed by loss of red fluorescence over time and averaged measurement of tumor spheroid size at various times following co-culture with CAR-T cells. Cytokine production, Ikaros expression, and gene expression of the CAR T Cells also were assessed. […]

[5] = target: T1, Ikaros; experiment: Ikaros levels in anti-CD19 CAR T cells after 24-hour or six-day exposure; format: cell-based
Method: Due to the robust impact of Compound C on degradation of Ikaros and Aiolos, in which excessive or sustained treatment may impact CAR T cell function negatively and/or cause neutropenia secondary to neutrophil maturation arrest, an intermittent dosing schedule for treatment with Compound C was evaluated for its ability to effect deep, but transient degradation of Ikaros. To do so, the pharmacokinetics of a weekly (Q7D) 0.3-mg dose of Compound C were modelled. […] The effects of a weekly 0.3-mg dose of Compound C on neutrophil development were also modelled.
FIGS. 6B and 6C show Ikaros levels in anti-CD19 CAR T cells, generated as described in Example 1, following 24-hour (FIG. 6B) or six-day exposure (FIG. 6C) to Compound C.

Ikaros expression (MFI) after six days of chronic stimulation [4]: lowest | Ikaros levels in anti-CD19 CAR T cells ([5]; 24-hour exposure, dose levels as low as 0.01 μM): lead to Ikaros degradation | Ikaros levels in anti-CD19 CAR T cells ([5]; six-day exposure to 0.001 μM): did not affect Ikaros levels
SMILES: O=C1CC[C@H](N2C(=O)c3cccc(NCc4ccc(CN5CC(N6CCOCC6)C5)cc4F)c3C2=O)C(=O)N1 [Compound C, (S)-2-(2,6-dioxopiperidin-3-yl)-4-((2-fluoro-4-((3-morpholinoazetidin-1-yl)methyl)benzyl)amino)isoindoline-1,3-dione]
CAR T cell proliferation ([1]; 1 nM, P<0.001): decreased | CAR T cell proliferation ([1]; 10 nM, P<0.0001): further decreased | decrease of cell doublings compared with the other compounds ([1]; at all doses tested): greatest decrease of doublings | CD27/CCR7 expression ([2]; 50 nM for one day and 1 nM for the remaining six days of stimulation, P<0.05): highest | percentage of CD27+/CCR7+ cells vs stimulation in the absence of compound ([2]; seven days of chronic stimulation in the presence of compound): higher percentages of CD27+/CCR7+ cells | tumor volume vs chronically stimulated CAR T cells alone or compound alone ([3]; 1 nM during re-challenge (rescue) with CAR T cells, P<0.0001): more reduced | IFNγ cytokine production five days after re-challenge ([3]; 1 nM during re-challenge (rescue), P<0.0001): highest | tumor volume vs chronically stimulated CAR T cells alone or compound alone ([3]; 10 nM during re-challenge (rescue) with CAR T cells, P<0.0001): more reduced | IFNγ cytokine production five days after re-challenge ([3]; 10 nM during re-challenge (rescue), P<0.05): increased
